Measurements reported in patent publication US10865391B2, “Glutamate dehydrogenase mutants and their application in preparation of L-phosphinothricin” (ZHEJIANG UNIVERSITY, priority 2018, dated 2020).

Key:
Assay type in all cases: biochemical, Pseudomonas putida
wild type PpGluDH = test: Catalytic activity toward other keto acid substrates by spectrophotometry, wild type; settings: keto acid as substrate
PpGluDH-A167G = test: Catalytic activity toward other keto acid substrates by spectrophotometry, A167G mutant; settings: keto acid as substrate; for Specific activity (U/mg) A167G: PpGluDH-A167G; for Catalytic activity of PpGluDH-A167G compared with the wild type: result in words
PpGluDH-V378A = test: Catalytic activity toward other keto acid substrates by spectrophotometry, V378A mutant; settings: keto acid as substrate; for Specific activity (U/mg) V378A: PpGluDH-V378A; for Catalytic activity of PpGluDH-V378A compared with the wild type: result in words

Structure (SMILES)	Specific activity (U/mg) Wild (wild type PpGluDH) [U/mg]	Specific activity (U/mg) A167G (PpGluDH-A167G) [U/mg]	Catalytic activity of PpGluDH-A167G compared with the wild type (PpGluDH-A167G)	Specific activity (U/mg) V378A (PpGluDH-V378A) [U/mg]	Catalytic activity of PpGluDH-V378A compared with the wild type (PpGluDH-V378A)
O=C(O)CCC(=O)C(=O)O [1a, 2-Ketoglutaric acid]	189.05	314.41	improved catalytic activity	268.48	improved catalytic activity
CC(=O)C(=O)O [2a, Pyruvic acid]	0.15	<0.01		0.01	
CCC(=O)C(=O)O [3a, 2-Ketobutyric acid]	4.93	0.09		0.34	
CC(C)C(=O)C(=O)O [4a, 3-Methyl-2-oxobutanoic acid]	0.37	<0.01		0.04	
CCCC(=O)C(=O)O [6a, 2-Oxovaleric acid]	6.39	1.21		2.37	
CCC(C)C(=O)C(=O)O (stereo not drawn) [7a, 3-Methyl-2-Oxovaleric acid]	0.07	<0.01		0.03	
CC(C)CC(=O)C(=O)O [8a, 4-Methyl-2-Oxovaleric acid]	0.05	0.01		0.03	
CCCCC(=O)C(=O)O [9a, 2-Ketohexanoic acid]	0.71	1.23	improved catalytic activity	1.49	improved catalytic activity
O=C(O)C(=O)c1ccccc1 [10a, Phenylglyoxylic acid]	0.04	0.01		0.01	
O=C(O)C(=O)Cc1ccccc1 [11a, Phenylpyruvic acid]	<0.01	<0.01		<0.01	
O=C(O)C(=O)CCc1ccccc1 [12a, 2-Oxo-4-phenylbutyric acid]	0.08	0.33	improved to some extent	0.04	decreased
O=C(O)C(=O)Cc1ccc(O)cc1 [13a, 4-hydroxyphenylpyruvic acid]	0.02	<0.01		<0.01	
